Measured values as given in patent US20200354331A1, “ICARIIN DERIVATIVES” (H. LEE MOFFITT CANCER CENTER AND RESEARCH INSTITUTE, INC., priority 2014, published 2020).

How the values were obtained:
[1] = system: NK cells and lymphokine-activated killer cells; conditions: 0.1 to 1.0 microgram/ml; tumor patients and healthy donors; cited from earlier work
[2] = system: Raji; assay: Apoptosis rates of ICT in cell lines; format: cell-based
[3] = system: CD33 and iNOS; assay: Expression of CD33 and iNOS on MDS-BM (flow cytometry, Q-PCR); format: cell-based; set-up: concentration or dose not given beside the values; conditions: 48 hours, 20 ICT

**Q.** For `COc1ccc(-c2oc3c(CC=C(C)C)c(O[C@@H]4O[C@H](CO)[C@@H](O)[C@H](O)[C@H]4O)cc(O)c3c(=O)c2O[C@@H]2O[C@@H](C)[C@H](O)[C@@H](O)[C@H]2O)cc1` [ICA, Icariin], which “NK cell activity and LAK activity” value [1] is on record?
**A.** increase NK cell activity and lymphokine-activated killer cell (LAK) activity

**Q.** Which Apoptosis rates ([2]; 5 μM) does the source give for `COc1ccc(-c2oc3c(CCC(C)(C)O)c(O)cc(O)c3c(=O)c2O)cc1` [ICT, 3,5,7-trihydroxy-4′-methoxy-8-(3-hydroxy-3-methylbutyl)-flavone] here?
**A.** 9.1%

**Q.** And the Apoptosis rates ([2]; 10 μM)?
**A.** 9.2%

**Q.** And the Apoptosis rates ([2]; 20 μM)?
**A.** 10.0%

**Q.** And the “expression of CD33 and iNOS on MDS-BM” value [3]?
**A.** down-regulate the expression of CD33 and iNOS on MDS-BM
